Holding throughout (experiment): GloSensor forskolin-stimulated cAMP assay, NPFFR2 mutants
Holding throughout (type): cell-based
For orientation: Cyclic AMP is a second messenger, typically raised through Gs and lowered through Gi signalling.

The target in assay [1] is T1, NPFFR2 mutants (Homo sapiens, UniProt Q9Y5X5, I414A).
T1 construct: expressed in transfected cells; host or cells: HEK293T (pcDNA3.1 NPFFR2 mutants)
As to conditions: NPFFR2 I3127.32A, HEK293T, three independent experiments. The text has this: (§1) Figure 2 Interaction of hNPSF with NPFFR2. (A) Residues participating in the interactions between hNPSF and NPFFR2 in the transmembrane (TM) binding pocket are shown as sticks. Dashed lines indicate polar interactions and hydrogen bonds between residues. Zoomed-in views highlighting interactions of the C-terminal segment (residues −1 to −4, PQRF), middle segment (residues −5 to −8, FLFQ), and the N-terminal segment (residues −9 to −11, SQA) of hNPSF are enclosed in red, blue, and yellow boxes, respectively. (B) NPFFR2 residues interacting with hNPSF were mutated to alanine, and the impact of each mutation on the EC50 value (ΔpEC50) was investigated using a forskolin-stimulated cAMP assay, after confirming surface expression of each mutant by an ELISA-based surface expression assay (Appendix Fig. S5). Three independent experiments (with technical triplicates) were conducted for each mutant. The bar graphs represent the mean of ΔpEC50 values from each experiment, with error bars indicating SEM. Statistical analyses were performed using ordinary one-way ANOVA followed by Dunnett’s test, comparing to the wild-type response. ns (not significant, P > 0.05); *P < 0.05; **P < 0.01; ***P < 0.001. Source data are available online for this figure.
(§2) HEK293T cells were seeded at a density of 6 × 10^5 cells per well in a six-well cell culture plate (SPL) and co-transfected with expression plasmids encoding GloSensor™ and each NPFFR construct, using 1 µg to 4 µg of DNA per well according to the Lipofectamine™ 2000 Transfection Reagent (Invitrogen) protocol. After 48 h of incubation under standard conditions (37 °C, 5% CO2), the cells were detached using Accutase solution (Sigma-Aldrich) and washed with PBS. The cells were then pelleted by centrifugation, resuspended in CO2-independent medium (Gibco) supplemented with Firefly D-Luciferin (0.5 mg/ml, NanoLight), and distributed into a 96-well white plate (SPL). After a 2-hour incubation, serially diluted ligands and 0.5 μM forskolin were added to each well to detect ligand-induced signaling. Luminescence signals were measured using a Mithras LB940 instrument (Berthold) with a measurement time of 1 s per well.
(§3) Data from the GloSensor^TM cAMP signaling assays were analyzed using GraphPad Prism with a three-parameter logistic model to fit concentration-response curves for both wild-type (WT) and mutant receptors. Mutant expression levels and DNA amounts were adjusted to match WT conditions. ΔpEC50 values were calculated by subtracting the log EC50 of the WT receptor from that of each mutant. Results are presented as mean ± SEM from three independent biological replicates, each performed in duplicate or more. Error bars represent the SEM. Statistical significance was assessed using one-way ANOVA, followed by Dunnett’s tests comparisons to the WT receptor. Significance levels were reported as follows: ns (not significant, P > 0.05); *P < 0.05; **P < 0.01; ***P < 0.001.
(§4) Appendix Figure S5. GloSensorTM cAMP assays of mutants and wild-type NPFFR2.
(§5) The dose-response of cAMP assay data for each mutant (red) presented in Fig. 2B are compared against the wild-type NPFFR2 (blue). Each experiment was conducted after adjusting the mutant's expression level to that of the wild-type NPFFR2 (Appendix Fig. S3), and pcDNA3.1 was used to match the total amount of DNA transfected. Data points represent mean values from three independent experiments (each with technical triplicate), with error bars indicating SEM. Raw data were normalized to the vehicle -treated (0%) and 0.5 μM forskolin-treated (100%) responses.
(§6) (% of forskolin stimulation) […]

In assay [2] the target is T2, NPFFR2 mutants (Homo sapiens, UniProt Q9Y5X5, F425A).
T2 construct: expressed in transfected cells; host or cells: HEK293T (pcDNA3.1 NPFFR2 mutants)
The conditions noted are these: NPFFR2 F3237.43A, HEK293T, three independent experiments.
Excerpt: as §1, §2, §3, §4, §5, §6

For assay [3], the target named is T3, NPFFR2 mutants (Homo sapiens, UniProt Q9Y5X5, R318A).
T3 construct: expressed in transfected cells; host or cells: HEK293T (pcDNA3.1 NPFFR2 mutants)
The conditions noted are these: NPFFR2 R2165.35A, HEK293T, three independent experiments.
Excerpt: as §1, §2, §3, §4, §5, §6

The target in assay [4] is T4, NPFFR2 mutants (Homo sapiens, UniProt Q9Y5X5, I414S).
T4 construct: expressed in transfected cells; host or cells: HEK293T (pcDNA3.1 NPFFR2 mutants)
The conditions noted are these: NPFFR2 I3127.32S, HEK293T, three independent experiments.
Excerpt: as §1, §2, §3, §4, §5, §6

Assay [5] concerns the target T5, NPFFR2 mutants (Homo sapiens, UniProt Q9Y5X5, W213A).
T5 construct: expressed in transfected cells; host or cells: HEK293T (pcDNA3.1 NPFFR2 mutants)
As to conditions: NPFFR2 W11123.50A, HEK293T, three independent experiments.
Excerpt: as §1, §2, §3, §4, §5, §6

Assay [6] has as its target T6, NPFFR2 mutants (Homo sapiens, UniProt Q9Y5X5, V231A).
T6 construct: expressed in transfected cells; host or cells: HEK293T (pcDNA3.1 NPFFR2 mutants)
The conditions noted are these: NPFFR2 V1293.36A, HEK293T, three independent experiments.
Excerpt: as §1, §2, §3, §4, §5, §6

In assay [7] the target is T7, NPFFR2 mutants (Homo sapiens, UniProt Q9Y5X5, Y417A).
T7 construct: expressed in transfected cells; host or cells: HEK293T (pcDNA3.1 NPFFR2 mutants)
The conditions noted are these: NPFFR2 Y3157.35A, HEK293T, three independent experiments.
Excerpt: as §1, §2, §3, §4, §5, §6

The target of assay [8] is T8, NPFFR2 mutants (Homo sapiens, UniProt Q9Y5X5, D207A).
T8 construct: expressed in transfected cells; host or cells: HEK293T (pcDNA3.1 NPFFR2 mutants)
As to conditions: NPFFR2 D1052.64A, HEK293T, three independent experiments.
Excerpt: as §1, §2, §3, §4, §5, §6

Assay [9] addresses T9, NPFFR2 mutants (Homo sapiens, UniProt Q9Y5X5, T322A).
T9 construct: expressed in transfected cells; host or cells: HEK293T (pcDNA3.1 NPFFR2 mutants)
As to conditions: NPFFR2 T2205.39A, HEK293T, three independent experiments.
Excerpt: as §1, §2, §3, §4, §5, §6

The target in assay [10] is T10, NPFFR2 mutants (Homo sapiens, UniProt Q9Y5X5, H421A).
T10 construct: expressed in transfected cells; host or cells: HEK293T (pcDNA3.1 NPFFR2 mutants)
As to conditions: NPFFR2 H3197.39A, HEK293T, three independent experiments.
Excerpt: as §1, §2, §3, §4, §5, §6

Assay [11] deals with T11, NPFFR2 mutants (Homo sapiens, UniProt Q9Y5X5, E310A).
T11 construct: expressed in transfected cells; host or cells: HEK293T (pcDNA3.1 NPFFR2 mutants)
As to conditions: NPFFR2 E20845.52A, HEK293T, three independent experiments.
Excerpt: as §1, §2, §3, §4, §5, §6

Assay [12] addresses T12, NPFFR2 mutants (Homo sapiens, UniProt Q9Y5X5, Q227A).
T12 construct: expressed in transfected cells; host or cells: HEK293T (pcDNA3.1 NPFFR2 mutants)
The conditions noted are these: NPFFR2 Q1253.32A, HEK293T, three independent experiments.
Excerpt: as §1, §2, §3, §4, §5, §6

SMILES strings stand for the structures.

T6 sequence (Q9Y5X5 103-522 V231A): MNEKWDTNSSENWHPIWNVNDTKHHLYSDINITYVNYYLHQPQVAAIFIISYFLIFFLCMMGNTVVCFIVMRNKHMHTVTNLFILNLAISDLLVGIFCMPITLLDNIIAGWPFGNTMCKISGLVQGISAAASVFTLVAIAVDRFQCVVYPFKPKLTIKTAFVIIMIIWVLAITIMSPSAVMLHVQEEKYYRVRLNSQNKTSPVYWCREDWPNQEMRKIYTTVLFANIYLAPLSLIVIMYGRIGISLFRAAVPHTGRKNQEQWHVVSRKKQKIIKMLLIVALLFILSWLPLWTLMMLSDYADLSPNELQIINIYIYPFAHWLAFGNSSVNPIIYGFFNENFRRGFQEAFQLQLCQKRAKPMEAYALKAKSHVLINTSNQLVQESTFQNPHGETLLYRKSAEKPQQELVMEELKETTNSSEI
T8 sequence (Q9Y5X5 103-522 D207A): as the sequence (Q9Y5X5 103-522 V231A) above, with D105A, A129V counted along it
T3 sequence (Q9Y5X5 103-522 R318A): as the sequence (Q9Y5X5 103-522 V231A) above, with A129V, R216A counted along it
T11 sequence (Q9Y5X5 103-522 E310A): as the sequence (Q9Y5X5 103-522 V231A) above, with A129V, E208A counted along it
T1 sequence (Q9Y5X5 103-522 I414A): as the sequence (Q9Y5X5 103-522 V231A) above, with A129V, I312A counted along it
T2 sequence (Q9Y5X5 103-522 F425A): as the sequence (Q9Y5X5 103-522 V231A) above, with A129V, F323A counted along it
T4 sequence (Q9Y5X5 103-522 I414S): as the sequence (Q9Y5X5 103-522 V231A) above, with A129V, I312S counted along it
T12 sequence (Q9Y5X5 103-522 Q227A): as the sequence (Q9Y5X5 103-522 V231A) above, with Q125A, A129V counted along it
T9 sequence (Q9Y5X5 103-522 T322A): as the sequence (Q9Y5X5 103-522 V231A) above, with A129V, T220A counted along it
T5 sequence (Q9Y5X5 103-522 W213A): as the sequence (Q9Y5X5 103-522 V231A) above, with W111A, A129V counted along it
T7 sequence (Q9Y5X5 103-522 Y417A): as the sequence (Q9Y5X5 103-522 V231A) above, with A129V, Y315A counted along it
T10 sequence (Q9Y5X5 103-522 H421A): as the sequence (Q9Y5X5 103-522 V231A) above, with A129V, H319A counted along it

As for `CC(C)C[C@H](NC(=O)[C@H](Cc1ccccc1)NC(=O)[C@H](C)NC(=O)[C@H](CCC(N)=O)NC(=O)[C@@H](N)CO)C(=O)N[C@@H](Cc1ccccc1)C(=O)N[C@@H](CCC(N)=O)C(=O)N1CCC[C@H]1C(=O)N[C@@H](CCC(N)=O)C(=O)N[C@@H](CCCNC(=N)N)C(=O)N[C@@H](Cc1ccccc1)C(N)=O` [hNPSF], the Emax came out at 63 ± 3% on NPFFR2 mutants [1] (HEK-293T); 81 ± 3% at NPFFR2 mutants [2] (HEK-293T); 85 ± 3% on NPFFR2 mutants [3] (HEK-293T); 75 ± 3% on NPFFR2 mutants [4] (HEK-293T); 78 ± 5% at NPFFR2 mutants [5] (HEK-293T); 79 ± 3% at NPFFR2 mutants [6] (HEK-293T). For the same compound, the Emax at NPFFR2 mutants [7] (HEK-293T) was determined as 77 ± 2%; at NPFFR2 mutants [8] (HEK-293T) it was 69 ± 4%; at NPFFR2 mutants [9] (HEK-293T), 70 ± 5%; at NPFFR2 mutants [10] (HEK-293T), 57 ± 2%; on NPFFR2 mutants [11] (HEK-293T) it was 29 ± 11%; on NPFFR2 mutants [12] (HEK-293T), 59 ± 4%. Besides, the EC50 was 10 nM on NPFFR2 mutants [1]; 398 nM at NPFFR2 mutants [2]; 10 nM at NPFFR2 mutants [3]; 31.6 nM at NPFFR2 mutants [4]; 1260 nM on NPFFR2 mutants [5]; 126 nM at NPFFR2 mutants [6]. Besides, the EC50 at NPFFR2 mutants [7] was 126 nM; at NPFFR2 mutants [8], 12.6 nM; on NPFFR2 mutants [9], 631 nM; on NPFFR2 mutants [10] it was 63.1 nM; at NPFFR2 mutants [11], 3.98 µM; on NPFFR2 mutants [12], 1260 nM.

Broadly, the Emax is the size of the effect at its maximum, as opposed to the concentration needed. A word on the EC50: it is the concentration needed to bring the measured effect to its halfway point. The low end stands for an effect from little substance, the high end for a need for much substance.

Source of the values: publication PMC12069643, “Structural insights into the selective recognition of RF-amide peptides by neuropeptide FF receptor 2” (EMBO Reports, 2025).
